Measured values from publication PMC4838304, “Effective Design of Multifunctional Peptides by Combining Compatible Functions” (PLoS Computational Biology, 2016).
Read-outs that look alike come from different tables or passages of the source.

Columns and labels:
[1] = test system: pheromone-signaling pathway (Fus1-eGFP) in MATa cells; experiment: Pheromone signaling assay, Fus1-GFP expression and shmoo phenotype; format: cell-based, Saccharomyces cerevisiae; conditions: BY4741 fus1::eGFP, 60 μM peptide (20 μM for α-factor), 3h
Experimental: Finally, the activity of the α-factor embedded in the peptides was evaluated by activation of the pheromone-signaling pathway in MATa cells of S. cerevisiae. We monitored the pheromone signaling activity by following the expression of the GFP-labeled Fus1 protein. Fus1 is among the proteins with the highest pheromone-induced expression and is required for cell-cell fusion during mating. […] The observed phenotype was consistent with the activation of signaling showing a mating protrusion, often called “shmoo” as well as the absence of budding due to inhibition of the Cdc28 cyclin [35, 36].
Fig 5 Pheromone activity. The pheromone signaling pathway is confirmed by the expression of Fus1-GFP, characteristic “shmoo” phenotype and the absence of budding observed in differential interference contrast (DIC) bright field. Concentrations were 20 μM for α-factor and 60 μM for all other peptides. The negative control was water without any peptide.
Pheromone signaling induction in Saccharomyces cerevisiae was measured by induction of eGFP fluorescence in a BY4741 strain containing the Fus1-eGFP construct in place of the wild type Fus1 (MATa his3Δ1 leu2Δ0 met15Δ0 ura3Δ0 fus1::eGFP HIS3MX6, obtained from the yeast GFP collection). The BY4741 fus1::eGFP strain was grown overnight in YPD to mid-log phase and diluted to 10^6 cells/mL. Samples were treated with the respective peptide concentrations and incubated for 3h before mixing 1:1 with low-diffusivity agarose suspended on a covered glass slide. Images were taken with an Olympus FV10 confocal microscope using a 60x objective with […]. Images were analyzed using Fiji (www.fiji.sc). The only modifications applied to the images were separation of the bright field and GFP channels, adjustment of brightness and contrast to 50% and addition of scale bars.

[2] = test system: Escherichia coli strain DH5α; experiment: microbe, parasite or virus in culture; format: cell-based
Excerpt: If CPP, DNA binding and AMP activities are compatible, the designed peptides should inhibit bacterial growth. Here we exposed E. coli DH5α cells to varying low concentrations of the designed peptides as well as several controls (see Fig 4). […] To test whether α-factor was important for AMP activity we also tested pure α-factor, pure NLS, the optimized NLS fitting CPP rules (NLS-CE) and the Iztli-1 peptide, a previously reported peptide with an embedded α-factor specifically designed to have antibacterial activity. […] A linear trend could be observed between concentration and growth inhibition (regression lines with standard deviations shown in Fig 6). […] The minimal inhibitory concentrations for E. coli are reported in Table 2 (growth curves are shown in S4 Fig).
Fig 6 Antibacterial activity. DH5α E. coli cells were treated with varying concentrations of peptides ranging from 0 to 16 μM for the peptides and 0 to 48 μM for Ampicillin. The relative area under the growth curve measured the growth inhibition. Measurements from four repetitions distributed onto two different plates are shown as dots colored by their respective concentrations. Linear regressions are shown as blue lines and their respective standard errors as blue shades. Dashed lines indicate the mean area under the curve for the H2O controls and its 50% value respectively. Minimal inhibitory concentrations to achieve 50% or 100% of cell growth inhibition are reported.
Escherichia coli strain DH5α was grown for 12 hours to mid-log phase and diluted to 8·10^5 cells/ml by using the reference OD obtained by absorption spectroscopy. Each sample 100μL culture was treated with 50μL solution containing the respective peptide in the desired concentration or water in the case of the controls. Growth curves were measured on two 96 well half area plates with two replicates each followed for 24h using a plate reader (Synergy, USA). In order to minimize plate-specific effects due to variations in loading time or initial cell numbers, different plates measurements were normalized by the time-point where the water control samples reached their half-maximal OD before combining. The respective minimum from each growth curve was subtracted from the normalized data from individual or combined plates. Areas under the curves were obtained by applying a linear interpolation to the OD curves, which was then integrated exactly. Growth rates were obtained by log-transforming the growth curves, identifying the exponential phase by the linear parts in that log-transformation (OD600 between 0.05 and 0.5) and performing a linear regression in the exponential phase with the slope denoting the respective growth rate. All mentioned methodology was implemented in R (www.r-project.org) and is available as open source at http://github.com/cdiener/dcf.
Using the slope of the linear regressions determined in these experiments, we estimated the minimal inhibitory concentration (MIC) for E. coli of our 3 CPP designed peptides (α-NLS-C, NLS-α-CE and chimera) and tested it experimentally.

[3] = Circular dichroism, secondary structure content (CONTIN/LL); format: physicochemical; conditions: for Secondary Structure Random coil / Secondary Structure α-Helix / Secondary Structure β-Sheet: 0.3mg in 1mL, 20°C, far-UV CD, CONTIN/LL
Experimental: We studied the structural properties of the peptides in vitro, using circular dichroism (see Materials and Methods). The far-UV CD spectra for NLS-CE, NLS-α and NLS-α-CE in water matched the characteristics of a random coil conformation.
Circular dichroism spectra were recorded on a ChirascanTM CD Spectrometer (Applied Photophysics, UK) equipped with a peltier temperature controller. 0.3mg of each peptide was dissolved in 1mL of water or 50% aqueous trifluoroethanol and placed in quartz cuvettes of 0.1cm path length. Far-UV CD spectra were collected from 185 to 250 nm at 20°C. Spectra were averaged over 5 scans and the averaged blank spectra of solvents were subtracted. Ellipticity is reported as mean residue molar ellipticity and recorded in terms of molar elipticity [θ] (deg cm^2 dmol^−1). CONTIN/LL within the CDPro analysis software program was used to estimate the secondary structure content of the peptides.

pGREG546 plasmid = experiment: Electrophoretic mobility shift assay (EMSA), DNA retention; format: binding; conditions: for DNA binding in EMSA, in words: 1μg pGREG546, DNA to peptide charge ratio 1:1 or 1:4, 30 minutes
Excerpt: To test the ability of the designed peptides to bind nucleic acids, we evaluated by electrophoretic mobility shift assays (EMSAs) the retention of DNA by the designed peptides. Each EMSA was executed with peptide quantities that were multiples of the DNA to peptide charge ratio. A DNA to peptide charge ratio of 1:1 is represented by the number of positive charges of the peptide required to neutralize the negative charges of the DNA backbone. Retention in the gel is an indirect measure of the fraction of positive charges within the peptide participating in binding the DNA molecules. All EMSA assays were performed using the yeast plasmid pGREG546. As negative control, pGREG546 without any peptide was used, and as positive control the known DNA-binding cell penetrating peptide MPG was used. […] However, retention in the gel was observed when NLS was joined to any larger peptide fragment.
Fig 4 DNA binding. (A) Quantification of DNA retention obtained from three independent electrophoretic mobility shift assays. All measurements are shown and horizontal bars denote the sample mean. Representative gels are shown in (B-C).
1μg of pGREG546 plasmid was pre-incubated with the required quantity of each peptide to result in a 1:1 or 1:4 peptide charge to DNA charge ratio. Samples were incubated for 30 minutes and loaded on a 1% Agarose gel in SB buffer. DNA affinity was quantified by measuring the mean pixel intensity of the DNA bands with Fiji (http://fiji.sc) and normalizing to the intensity range between an empty spot on the gel and the intensity of the pGREG546 plasmid without any added peptide. Analysis scripts for the EMSA experiments as well as the raw data can be found with the distributed source code at http://bis.ifc.unam.mx/software/dcf.

[4] = test system: Escherichia coli strain DH5α; format: cell-based; conditions: 12 h
[5] = E. coli DH5α, peptides 0 to 16 μM

Compound | pheromone signaling activity (Fus1-GFP expression, phenotype) [1] | Secondary Structure Random coil ([3]; 50% TFE) [%] | Secondary Structure α-Helix ([3]; 50% TFE) [%] | Secondary Structure β-Sheet ([3]; 50% TFE) [%] | Secondary Structure Random coil ([3]; water) [%] | Secondary Structure α-Helix ([3]; water) [%] | Secondary Structure β-Sheet ([3]; water) [%] | antibacterial activity against E. coli, in words [2, 5] | DNA binding in EMSA, in words (pGREG546 plasmid) | other results
PKKKRKVWHWLQLKPGQPMY [NLS-α] | significant induction of expression of Fus1-GFP | 59 | 6 | 35 | 67 | 5 | 28 |  |  | concentration showing partial growth inhibition [2, 5]: 4 µM; aggregation suggested by decrease in negative ellipticity ([3]; 50% TFE, CD spectra): TFE promoted aggregation of the peptides
QPKKKRKV [NLS, reference compound] |  |  |  |  |  |  |  | no antibacterial activity | not capable of binding DNA in low concentrations | 
CC1(C)S[C@@H]2[C@H](NC(=O)[C@H](N)c3ccccc3)C(=O)N2[C@H]1C(=O)O [Ampicillin, reference compound] |  |  |  |  |  |  |  |  |  | MIC ([2]; Escherichia coli, E. coli DH5α, growth curves followed for 24h, relative area under the growth curve, read-out: E. coli MIC for 50% inhibition): > 48 µM; MIC ([2]; Escherichia coli, E. coli DH5α, predicted from linear regression and tested experimentally, read-out: E. coli MIC for 100% inhibition): 100 µM
WHWLQLKPGQPMY [α-factor, mating pheromone α-factor from S. cerevisiae, purchased from Sigma-Aldrich] |  |  |  |  |  |  |  | no antibacterial activity | weak ability to bind DNA | DNA retention (pGREG546 plasmid; 1:4 DNA to peptide charge ratio, 1μg pGREG546, 30 minutes, 1% agarose gel): around 60%
CSCC[C@H](NC(=O)[C@@H]1CCCN1C(=O)[C@H](CCC(N)=O)NC(=O)CNC(=O)[C@@H]1CCCN1C(=O)[C@H](CCCCN)NC(=O)[C@H](CC(C)C)NC(=O)[C@H](CCC(N)=O)NC(=O)[C@H](CC(C)C)NC(=O)[C@H](Cc1c[nH]c2ccccc12)NC(=O)[C@H](Cc1c[nH]cn1)NC(=O)[C@H](Cc1c[nH]c2ccccc12)NC(=O)[C@H](Cc1ccccc1)NC(=O)[C@H](CCCNC(=N)N)NC(=O)[C@H](CC(N)=O)NC(=O)[C@H](CC(C)C)NC(=O)[C@H](Cc1ccccc1)NC(=O)[C@@H](N)CCCCN)C(=O)N[C@@H](Cc1ccc(O)cc1)C(=O)O [Iztli-1, reference compound] | same phenotype |  |  |  |  |  |  | very similar E. coli growth inhibition as NLS-α | increased its affinity for DNA | MIC ([2]; DH5α, 24 h, read-out: E. coli MIC for 50% inhibition): 8 µM; E. coli MIC for 100% inhibition [4]: 20 µM
WRFVWMNPKKKRKV [NLS-CE, optimized NLS fitting CPP rules] |  | 61 | 5 | 34 | 64 | 6 | 31 | partial growth inhibition | effective DNA-binding activity | 
